Source: EP4516309A1, “CRHR1 AGONISTS FOR USE IN THE TREATMENT OF SOCIAL ANXIETY DISORDERS” (Consejo Superior de Investigaciones Cientificas, priority 2023, dated 2025)

Target: T1, inhibitory DREADD (Homo sapiens, UniProt P08173, A203G/Y113C)
T1 construct: host or cells: ILA CRH+ neurons of CRH-Cre mice, Cre-dependent AAV2/8 transduction in vivo
T1 sequence (P08173 1-479 Y113C/A203G): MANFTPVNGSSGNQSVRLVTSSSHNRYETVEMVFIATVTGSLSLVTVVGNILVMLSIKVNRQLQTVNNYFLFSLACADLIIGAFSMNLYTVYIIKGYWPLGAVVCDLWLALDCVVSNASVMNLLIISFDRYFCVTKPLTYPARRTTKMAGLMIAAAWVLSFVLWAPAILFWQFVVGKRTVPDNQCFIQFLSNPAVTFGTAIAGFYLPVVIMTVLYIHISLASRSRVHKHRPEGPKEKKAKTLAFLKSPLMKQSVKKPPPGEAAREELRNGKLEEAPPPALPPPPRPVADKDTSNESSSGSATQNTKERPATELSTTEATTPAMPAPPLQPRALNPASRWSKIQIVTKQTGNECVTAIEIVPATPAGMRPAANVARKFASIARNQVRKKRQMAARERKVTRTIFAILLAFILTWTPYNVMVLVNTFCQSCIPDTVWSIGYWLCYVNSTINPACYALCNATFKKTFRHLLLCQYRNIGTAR
Assay: Social novelty preference test with chemogenetic silencing of ILA CRH cells
Format: in vivo, CRH-Cre mice
Conditions: CNO 5 mg/kg intra-peritoneally 30 min prior to the learning trial; iDREADD in ILA CRH cells
Method: Injection coordinates were the following (in mm from Bregma): AP: 1.65, ML: ±0.1, DV: -2.6. Injections were done bilaterally with 100 nl injected per site. […]
Social novelty preference test. […] Using automatic tracking of the test mice (ANY-Maze, Stoelting), the inventors quantified the time the test mice spent in the immediate area surrounding each cup - and therefore, interacting with each stimulus mice - during learning and recall. Using the interaction time from the recall trial, the inventors calculated a discrimination index for social novelty preference as the following: D! = (time with novel - time with familiar) / total interaction time. […] The inventors also calculated the total time spent interacting with stimulus mice during each trial in order to verify that the sociability drive was not affected. […]

## C[N+]1([O-])CCN(C2=Nc3cc(Cl)ccc3Nc3ccccc32)CC1 [CNO, clozapine N-oxide]
  discrimination index for social novelty preference: not different from zero
  exploration of novel and familiar mice during recall: explored the novel and familiar mice to the same extent
